39 compounds from BindingDB's records for doi:10.1016/j.bmcl.2004.01.021 (Atherogenics, 2004) can be followed below.

Each structure is given as a SMILES string.

The assay deals with T1, Tumor necrosis factor receptor superfamily member 1A (Homo sapiens, UniProt P19438).
T1 sequence (P19438 whole entry): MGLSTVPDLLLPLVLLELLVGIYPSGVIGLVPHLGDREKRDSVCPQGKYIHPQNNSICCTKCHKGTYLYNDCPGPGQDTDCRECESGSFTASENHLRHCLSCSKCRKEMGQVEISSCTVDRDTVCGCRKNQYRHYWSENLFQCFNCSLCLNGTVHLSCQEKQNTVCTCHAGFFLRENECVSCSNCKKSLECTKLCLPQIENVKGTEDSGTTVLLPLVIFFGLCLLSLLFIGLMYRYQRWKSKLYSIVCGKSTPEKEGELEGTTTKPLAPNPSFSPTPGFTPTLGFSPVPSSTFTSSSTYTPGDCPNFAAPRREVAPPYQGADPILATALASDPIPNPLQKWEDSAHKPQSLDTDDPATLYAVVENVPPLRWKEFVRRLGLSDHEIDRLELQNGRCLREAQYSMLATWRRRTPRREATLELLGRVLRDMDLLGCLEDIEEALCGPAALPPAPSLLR
Description: ChEBML_224214. The source says: Inhibition of TNF-alpha-induced VCAM-1 expression
On to `COc1ccc(-c2cccs2)cc1/C=C/C(=O)c1ccc(OC)c(OC)c1` [(E)-1-(3,4-Dimethoxy-phenyl)-3-(2-methoxy-5-thiophen-2-yl-phenyl)-propenone], for which the IC50 came out at 3000 nM.
`COc1ccc(C(=O)/C=C/c2ccc(-c3cccs3)cc2)cc1OC` [(E)-1-(3,4-Dimethoxy-phenyl)-3-(4-thiophen-2-yl-phenyl)-propenone]: it took 12000 nM to reach half-maximal inhibition (IC50).
With `COc1ccc(-c2cc(C)cs2)cc1/C=C/C(=O)c1ccc(OC)c(OC)c1` [(E)-1-(3,4-Dimethoxy-phenyl)-3-[2-methoxy-5-(4-methyl-thiophen-2-yl)-phenyl]-propenone] the figure was 2000 nM; with `COc1ccc(-c2ccc(C)s2)cc1/C=C/C(=O)c1ccc(OC)c(OC)c1` [(E)-1-(3,4-Dimethoxy-phenyl)-3-[2-methoxy-5-(5-methyl-thiophen-2-yl)-phenyl]-propenone], 2000 nM; with `COc1ccc(/C=C/C(=O)c2cc(C(C)(C)C)c(O)c(C(C)(C)C)c2)cc1` [(E)-1-(3,5-Di-tert-butyl-4-hydroxy-phenyl)-3-(4-methoxy-phenyl)-propenone], above 50000 nM.
In the case of `CC(C)(C)c1cc(C(=O)/C=C/c2ccccc2)cc(C(C)(C)C)c1O` [(E)-1-(3,5-Di-tert-butyl-4-hydroxy-phenyl)-3-phenyl-propenone] it was 47000 nM.
In the case of `COc1ccc(/C=C/C(=O)c2cc(C(C)(C)C)c(OC)c(C(C)(C)C)c2)cc1` [(E)-1-(3,5-Di-tert-butyl-4-methoxy-phenyl)-3-(4-methoxy-phenyl)-propenone] it was 17000 nM; in that of `COc1c(C(C)(C)C)cc(C(=O)/C=C/c2ccccc2)cc1C(C)(C)C` [(E)-1-(3,5-Di-tert-butyl-4-methoxy-phenyl)-3-phenyl-propenone], 9000 nM; in that of `COc1cc(OC)cc(C(=O)/C=C/c2cc(-c3cccs3)ccc2OC)c1` [(E)-1-(3,5-Dimethoxy-phenyl)-3-(2-methoxy-5-thiophen-2-yl-phenyl)-propenone], 2000 nM.
Compound `COc1ccc(-c2cc(C(=O)/C=C/c3cc(OC)c(OC)c(OC)c3)c(OC)cc2OC)c(OC)c1` [(E)-1-(4,6,2',4'-Tetramethoxy-biphenyl-3-yl)-3-(3,4,5-trimethoxy-phenyl)-propenone] gave an IC50 of 3000 nM.
With `COc1cc(/C=C/C(=O)c2cc(OC)c(OCc3ccccc3)c(OC)c2)cc(Br)c1OC` [(E)-1-(4-Benzyloxy-3,5-dimethoxy-phenyl)-3-(3-bromo-4,5-dimethoxy-phenyl)-propenone] the figure was above 50000 nM; with `O=C(/C=C/c1ccc(F)c(-c2cccs2)c1)c1ccc(F)cc1` [(E)-1-(4-Fluoro-phenyl)-3-(4-fluoro-3-thiophen-2-yl-phenyl)-propenone], 4000 nM.
In the case of `COc1cc(C(=O)/C=C/c2cc(-c3cccs3)ccc2OC)ccc1O` [(E)-1-(4-Hydroxy-3-methoxy-phenyl)-3-(2-methoxy-5-thiophen-2-yl-phenyl)-propenone] it was 7000 nM; in that of `COc1ccc(C(=O)/C=C/c2cc(-c3cccs3)ccc2OC)cc1` [(E)-1-(4-Methoxy-phenyl)-3-(2-methoxy-5-thiophen-2-yl-phenyl)-propenone], 3000 nM.
In the case of `COc1ccc(-c2cccs2)cc1/C=C/C(=O)c1ccc2c(c1)OCO2` [(E)-1-Benzo[1,3]dioxol-5-yl-3-(2-methoxy-5-thiophen-2-yl-phenyl)-propenone] it was 4000 nM; in that of `COc1ccc(-c2cc(C)cs2)cc1/C=C/C(=O)c1ccc2c(c1)OCO2` [(E)-1-Benzo[1,3]dioxol-5-yl-3-[2-methoxy-5-(4-methyl-thiophen-2-yl)-phenyl]-propenone], 4000 nM; in that of `COc1ccc(-c2ccc(C)s2)cc1/C=C/C(=O)c1ccc2c(c1)OCO2` [(E)-1-Benzo[1,3]dioxol-5-yl-3-[2-methoxy-5-(5-methyl-thiophen-2-yl)-phenyl]-propenone], 3000 nM.
The compound `COCCOc1c(OC)cc(C(=O)/C=C/c2cc(OC)c(OC)c(OC)c2)cc1OC` [(E)-1-[3,5-Dimethoxy-4-(2-methoxy-ethoxy)-phenyl]-3-(3,4,5-trimethoxy-phenyl)-propenone] came in with a 50% inhibitory concentration (IC50) of 5000 nM.
The compound `COc1cc(/C=C/C(=O)c2cc(OC)c(OCc3cc(OC)c(OC)c(OC)c3)c(OC)c2)cc(OC)c1OC` [(E)-1-[3,5-Dimethoxy-4-(3,4,5-trimethoxy-benzyloxy)-phenyl]-3-(3,4,5-trimethoxy-phenyl)-propenone] yielded an IC50 of 3000 nM.
In the case of `COC1=C(c2c(OC)cc(C(=O)/C=C/c3cc(OC)c(OC)c(OC)c3)cc2OC)Oc2ccccc2O1` [(E)-1-[3,5-Dimethoxy-4-(3-methoxy-benzo[1,4]dioxin-2-yl)-phenyl]-3-(3,4,5-trimethoxy-phenyl)-propenone], the 50% inhibitory concentration (IC50) came out at 2000 nM.
With `COc1ccc(COc2c(OC)cc(C(=O)/C=C/c3cc(OC)c(OC)c(OC)c3)cc2OC)cc1` [(E)-1-[3,5-Dimethoxy-4-(4-methoxy-benzyloxy)-phenyl]-3-(3,4,5-trimethoxy-phenyl)-propenone] the figure was 1000 nM.
With `COc1cc(/C=C/C(=O)c2cc(OC)c(OCc3cccs3)c(OC)c2)cc(OC)c1OC` [(E)-1-[3,5-Dimethoxy-4-(thiophen-2-ylmethoxy)-phenyl]-3-(3,4,5-trimethoxy-phenyl)-propenone] the figure was 3000 nM; with `COC1=C(c2ccc(C(=O)/C=C/c3cc(OC)c(OC)c(OC)c3)cc2OC)Oc2ccccc2O1` [(E)-1-[3-Methoxy-4-(3-methoxy-benzo[1,4]dioxin-2-yl)-phenyl]-3-(3,4,5-trimethoxy-phenyl)-propenone], 4000 nM; with `COc1ccc(-c2cccs2)cc1/C=C/C(=O)c1ccc(OCc2ccccn2)c(OC)c1` [(E)-1-[3-Methoxy-4-(pyridin-2-ylmethoxy)-phenyl]-3-(2-methoxy-5-thiophen-2-yl-phenyl)-propenone], 3000 nM.
With `COc1ccc(-c2cccs2)cc1/C=C/C(=O)c1ccc(OCc2cccnc2)c(OC)c1` [(E)-1-[3-Methoxy-4-(pyridin-3-ylmethoxy)-phenyl]-3-(2-methoxy-5-thiophen-2-yl-phenyl)-propenone] the figure was 3000 nM; with `COc1ccc(-c2cccs2)cc1/C=C/C(=O)c1ccc(OCc2ccncc2)c(OC)c1` [(E)-1-[3-Methoxy-4-(pyridin-4-ylmethoxy)-phenyl]-3-(2-methoxy-5-thiophen-2-yl-phenyl)-propenone], 4000 nM.
`COc1ccc(COc2c(OC)cc(C(=O)/C=C/c3cc(OC)c(OC)c(OC)c3)cc2OC)cc1OC` [(E)-1-[4-(3,4-Dimethoxy-benzyloxy)-3,5-dimethoxy-phenyl]-3-(3,4,5-trimethoxy-phenyl)-propenone] gave an IC50 of 2000 nM.
With `COc1ccc(COc2ccc(C(=O)/C=C/c3cc(OC)c(OC)c(OC)c3)cc2OC)cc1OC` [(E)-1-[4-(3,4-Dimethoxy-benzyloxy)-3-methoxy-phenyl]-3-(3,4,5-trimethoxy-phenyl)-propenone] the figure was 2000 nM; with `COc1ccc(-c2cccs2)cc1/C=C/C(=O)c1ccc(OCc2ccc(N)cc2)c(OC)c1` [(E)-1-[4-(4-Amino-benzyloxy)-3-methoxy-phenyl]-3-(2-methoxy-5-thiophen-2-yl-phenyl)-propenone], 7000 nM.
With `COc1cc(/C=C/C(=O)c2cc(OC)c(OCc3ccc4c(c3)OCO4)c(OC)c2)cc(OC)c1OC` [(E)-1-[4-(Benzo[1,3]dioxol-5-ylmethoxy)-3,5-dimethoxy-phenyl]-3-(3,4,5-trimethoxy-phenyl)-propenone] the figure was 3000 nM; with `COc1cc(/C=C/C(=O)c2cc(OC)c(OCc3ccco3)c(OC)c2)cc(OC)c1OC` [(E)-1-[4-(Furan-2-ylmethoxy)-3,5-dimethoxy-phenyl]-3-(3,4,5-trimethoxy-phenyl)-propenone], 3000 nM.
In the case of `COc1cc(OC)c(-c2cccs2)cc1/C=C/C(=O)c1ccc(OC)c(OC)c1OC` [(E)-3-(2,4-Dimethoxy-5-thiophen-2-yl-phenyl)-1-(2,3,4-trimethoxy-phenyl)-propenone] it was 2000 nM.
As to `COc1cc(OC)c(C(=O)/C=C/c2cc(-c3cccs3)ccc2OC)c(OC)c1` [(E)-3-(2-Methoxy-5-thiophen-2-yl-phenyl)-1-(2,4,6-trimethoxy-phenyl)-propenone], the IC50 was 3000 nM.
Take `COc1ccc(-c2cccs2)cc1/C=C/C(=O)c1cc(OC)c(OC)c(OC)c1` [(E)-3-(2-Methoxy-5-thiophen-2-yl-phenyl)-1-(3,4,5-trimethoxy-phenyl)-propenone]: the midpoint of inhibition, the IC50, lay at 3000 nM.
With `COc1ccc(-c2cccs2)cc1/C=C/C(=O)c1ccccc1` [(E)-3-(2-Methoxy-5-thiophen-2-yl-phenyl)-1-phenyl-propenone] the figure was 5000 nM; with `COc1cc(-c2cccs2)ccc1C(=O)/C=C/c1ccc(F)c(F)c1` [(E)-3-(3,4-Difluoro-phenyl)-1-(2-methoxy-4-thiophen-2-yl-phenyl)-propenone], 2000 nM; with `COc1ccc(C(=O)/C=C/c2ccc(OC)c(OC)c2)cc1` [(E)-3-(3,4-Dimethoxy-phenyl)-1-(4-methoxy-phenyl)-propenone], 15000 nM.
In the case of `CCOc1cc(OCC)c(C(=O)/C=C/c2cc(Br)c(OC)c(OC)c2)cc1OCC` [(E)-3-(3-Bromo-4,5-dimethoxy-phenyl)-1-(2,4,5-triethoxy-phenyl)-propenone] it was 15000 nM; in that of `COc1cc(OC)c(C(=O)/C=C/c2cc(Br)c(OC)c(OC)c2)cc1OC` [(E)-3-(3-Bromo-4,5-dimethoxy-phenyl)-1-(2,4,5-trimethoxy-phenyl)-propenone], 2000 nM.

In general, IC50 refers to the concentration that inhibits the measured activity by half. Low readings indicate greater potency, high ones weaker potency.
